Reference: patent publication US20110009379A1, “INDOLINONE COMPOUND” (ASTELLAS PHARMA INC., priority 2008, published 2011)

Legend:
human TRPA1 = target: T1, human TRPA1 (Homo sapiens, UniProt O75762, K186N/R3C/R58T); experiment: Measurement of TRPA1 activation activity (intracellular calcium, FLIPR, HEK293 cells stably expressing human TRPA1); format: cell-based; conditions: change of intracellular calcium concentration
T1 construct: expressed in transfected cells; pcDNA3.1(+) vector)
In short: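 HEK293 cells stably expressing cloned human TRPA1 (G418-selected) were loaded with Fluo4-AM for 1 h in HBSS/HEPES pH 7.4 buffer containing probenecid. Intracellular calcium change after compound addition was recorded by FLIPR. EC50 values were calculated from these responses.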

[1] = test system: delay of discharging time induced by loperamide in mice; experiment: Loperamide induced constipation model (glass bead discharging time); format: in vivo; conditions: Mus musculus; mice (Slc:ddY, male), 0.3 mg/kg loperamide subcutaneously, compound orally; read-out: ED50 (amount which suppresses 50% of the delay of discharging time induced by loperamide)
Experimental: It has been known that loperamide as a μ opioid receptor agonist causes convulsive contraction in intestinal tracts. Thus, a delay in the intestinal transport ability due to loperamide is thought as a constipation IBS model.
Mice (Slc:ddY, five-week old, male) fasted from the previous evening of the experiment. On the day of the experiment, the mice were acclimatized to cages for measurement for 1 hour or more, and 0.3 mg/kg of loperamide was administered subcutaneously. After 30 minutes, a compound to be tested was administered orally, ether anesthesia was applied to the mice immediately thereafter, glass beads having diameter of 3 mm were inserted to 2 cm from anus. The mice were returned to the cages for measurement, and the time from waking to discharging of the glass beads was measured. Furthermore, the compound to be tested was dissolved into 10% DMSO, 10% cremophor, and 80% distillated water.
As a result, it has been recognized that there was a delay in the beads discharging time of the loperamide administration group (vehicle group) in comparison with the loperamide non-administration group (control group).
ED50 values (amount of the compound to be tested which suppresses 50% of the delay of discharging time induced by loperamide) of some of the compounds of the formula (I) are shown in Table 3. In this connection, comparative compound 1 is the same compound as comparative compound 1 in Test Example 4.

T1 sequence (O75762 whole entry R3C/R58T/K186N): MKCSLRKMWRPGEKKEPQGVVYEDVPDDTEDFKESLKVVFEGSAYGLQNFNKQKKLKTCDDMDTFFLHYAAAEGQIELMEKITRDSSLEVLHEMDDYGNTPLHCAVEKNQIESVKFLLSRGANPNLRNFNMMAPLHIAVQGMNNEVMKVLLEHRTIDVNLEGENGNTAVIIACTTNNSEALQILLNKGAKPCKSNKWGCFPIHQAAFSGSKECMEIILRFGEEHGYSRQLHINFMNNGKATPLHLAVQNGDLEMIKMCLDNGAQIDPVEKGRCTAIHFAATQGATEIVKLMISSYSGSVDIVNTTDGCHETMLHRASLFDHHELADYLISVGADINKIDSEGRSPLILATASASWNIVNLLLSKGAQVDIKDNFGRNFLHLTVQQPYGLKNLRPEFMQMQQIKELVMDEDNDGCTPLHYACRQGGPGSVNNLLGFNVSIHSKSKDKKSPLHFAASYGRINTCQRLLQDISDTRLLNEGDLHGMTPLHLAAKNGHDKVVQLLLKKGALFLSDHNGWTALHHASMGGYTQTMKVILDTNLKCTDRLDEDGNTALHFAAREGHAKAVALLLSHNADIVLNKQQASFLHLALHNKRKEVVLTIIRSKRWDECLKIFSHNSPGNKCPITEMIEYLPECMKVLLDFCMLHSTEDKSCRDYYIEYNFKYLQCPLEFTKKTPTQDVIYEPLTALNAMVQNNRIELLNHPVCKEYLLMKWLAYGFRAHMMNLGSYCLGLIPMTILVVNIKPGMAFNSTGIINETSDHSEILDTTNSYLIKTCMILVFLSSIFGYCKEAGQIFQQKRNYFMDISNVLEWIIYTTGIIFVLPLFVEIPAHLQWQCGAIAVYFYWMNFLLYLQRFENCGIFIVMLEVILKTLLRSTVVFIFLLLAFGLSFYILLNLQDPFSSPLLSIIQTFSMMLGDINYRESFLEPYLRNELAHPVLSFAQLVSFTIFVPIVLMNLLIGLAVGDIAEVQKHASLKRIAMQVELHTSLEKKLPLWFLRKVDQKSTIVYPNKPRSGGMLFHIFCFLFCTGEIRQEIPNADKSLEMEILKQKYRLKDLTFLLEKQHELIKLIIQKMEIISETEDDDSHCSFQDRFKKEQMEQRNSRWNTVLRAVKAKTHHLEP

## O=C(O)/C=C1/C(=O)N(CC2CCCC2)c2c(F)cccc21 [Example 28, (2E)-[1-(cyclopentylmethyl)-7-fluoro-2-oxo-1,2-dihydro-3H-indol-3-ylidene]acetic acid]
Human TRPA1
  EC50: 510 nM
[1]
  ED50: 0.1 mg/kg
